For four molecules, Activity and CC50 results are on record in ChEMBL document CHEMBL1158079, “Antimalarial 4-phenylcoumarins from the stem bark of Hintonia latiflora” (J Nat Prod, 2006).

The structures appear in SMILES notation. ≈ marks a conversion by molar mass, not a printed value.

The test system of data set [1] is Plasmodium berghei. The data set can be described thus: Antimalarial activity as reduced schizont maturation in Plasmodium berghei after 16 hrs. The data set is classed as functional. Set-up: scale not given: the % may be the effect or the level left.
In a further data set the test system is Mus musculus. The data set can be described thus: Toxicity in Plasmodium berghei ANKA infected mice (Mus musculus) at 40 mg/kg/day, perorally after 4 days. The data set is classed as organism-based. Set-up: route oral. To be noted: in vivo, po, 96 h.
Data set [2] deals with Plasmodium berghei. The data set can be described thus: Antimalarial activity as reduced schizont maturation in Plasmodium berghei ANKA infected mice (Mus musculus) at 40 mg/kg/day peroral dose over 4 days. The data set is classed as functional. Set-up: scale not given: the % may be the effect or the level left. The following applies: route oral.
The subject of data set [3] is Plasmodium berghei. The data set can be described thus: Antimalarial activity in schizont maturation against Plasmodium berghei ANKA infected mice (Mus musculus) at 200 mg/kg/day peroral dose over 4 days. The class given is functional. To be noted: route oral.
The test system of data set [4] is Plasmodium berghei. The data set can be described thus: Antimalarial activity reduced schizont maturation in Plasmodium berghei at 10 ug/mL after 16 hrs. Details: scale not given: the % may be the effect or the level left. The class given is functional.
Data set [5] has as its system Plasmodium berghei. As to the kind of experiment: Antimalarial activity as reduced schizont maturation in Plasmodium berghei ANKA infected mice (Mus musculus) at 5 mg/kg/day peroral dose over 4 days. The data set is classed as functional. Details: scale not given: the % may be the effect or the level left. To be noted: route oral.
The nature of data set [6]: Toxicity against human SQC1 UISO cells. The data set is classed as cell-based. The following applies: read-out: ED50 (the source's name).
Data set [7] can be described thus: Toxicity against mouse P388 cells. To be noted: read-out: ED50 (the source's name). The data set is classed as cell-based.
A short description of data set [8]: Toxicity against human KB cells. The class given is cell-based. To be noted: read-out: ED50 (the source's name).

On to `COc1cc(O[C@@H]2O[C@H](CO)[C@@H](O)[C@H](O)[C@H]2O)c2c(-c3ccc(O)c(O)c3)cc(=O)oc2c1`, for which the figures for the Activity with Plasmodium berghei [1], with Mus musculus and with Plasmodium berghei [2] were 25.9%, “Non-toxic” and 70.8%, respectively.

On to `COc1cc(O[C@@H]2O[C@H](CO)[C@@H](O)[C@H](O)[C@H]2O)c2c(-c3ccc(OC)c(O)c3)cc(=O)oc2c1`, for which the Activity in the data set on Plasmodium berghei [1] is on record as 24.7%; in the data set on Mus musculus, “Non-toxic”; in the data set with Plasmodium berghei [2] it was 35.1%.

Regarding `CCN(CC)CCCC(C)Nc1ccnc2cc(Cl)ccc12` (stereo not drawn) [CHLOROQUINE], the Activity is reported as 94% with Plasmodium berghei [3], 100% with Plasmodium berghei [4], 95.7% in the data set on Plasmodium berghei [5] and “Non-toxic” with Mus musculus.

For `Cc1c2ccncc2c(C)c2c1[nH]c1ccccc12` [ELLIPTECINE], the CC50 in [6] is 1.77 µg/mL (≈ 7.19 µM); in data set [7] it was < 1 µg/mL; in data set [8] it was 1.31 µg/mL (≈ 5.32 µM).
